{
  "source": "patent US8541415B2",
  "about": "(University of Pittsburgh—of the Commonwealth System of …, priority 2008, dated 2013)",
  "key": {"HIV-1 strain NL4-3": {"tested_on": "HIV-1 strain NL4-3", "assay": "microbe, parasite or virus in culture", "type": "cell-based", "experimental": "(§1) Lead compounds from the yeast screen were evaluated for activity in a Nef-dependent HIV replication assay. For these experiments, U87MG astroglioma cells engineered to express the HIV-1 co-receptors CD4 and CXCR4 were employed. Replication of HIV-1 NL4-3 is dependent upon an intact viral nef gene in these cells, making this system suitable to evaluate leads from the Nef-directed screen. U87MG cells were infected with HIV-1 in the presence of the top five compounds identified in the yeast screen, and HIV replication was monitored as p24 release into the culture supernatant 4 days later, as known in the art. As known in the art, “p24” refers to a constituent protein of the capsid of HIV-1.\n(§2) The data of Table 1 are presented as percent p24 release relative to control in the absence of compound. […] Data are expressed as percent viable cells relative to untreated control culture.\nIt is understood that “strongest” and like terms in the context of inhibitors identified in a library screen refer to compounds that inhibit at the lowest concentrations. For these experiments, the U87MG astroglioma cell line was used as a model system. […] U87MG cells were infected with HIV-1 strain NL4-3 as well as an isogenic variant that fails to express Nef (ΔNef), over a wide range of viral titers and in the presence of each compound at 5 μM. Viral replication was assessed as HIV p24 antigen release into the culture supernatant 4 and/or 5 days later. Methods for the assay of p24 in culture supernatant are well known in the art and include, for example without limitation, immunochemical methods."}, "U87MG cells": {"tested_on": "U87MG cells", "conditions": "human, 96 h, 30 μM", "experimental": "as §1, §2"}, "Hck alone": {"target": "T1, Hck alone (Homo sapiens, UniProt P08631)", "T1 construct": "made in house; host or cells: Sf9 insect cells", "T1 sequence (P08631 with tags, fused parts or gaps isoform P08631-3)": "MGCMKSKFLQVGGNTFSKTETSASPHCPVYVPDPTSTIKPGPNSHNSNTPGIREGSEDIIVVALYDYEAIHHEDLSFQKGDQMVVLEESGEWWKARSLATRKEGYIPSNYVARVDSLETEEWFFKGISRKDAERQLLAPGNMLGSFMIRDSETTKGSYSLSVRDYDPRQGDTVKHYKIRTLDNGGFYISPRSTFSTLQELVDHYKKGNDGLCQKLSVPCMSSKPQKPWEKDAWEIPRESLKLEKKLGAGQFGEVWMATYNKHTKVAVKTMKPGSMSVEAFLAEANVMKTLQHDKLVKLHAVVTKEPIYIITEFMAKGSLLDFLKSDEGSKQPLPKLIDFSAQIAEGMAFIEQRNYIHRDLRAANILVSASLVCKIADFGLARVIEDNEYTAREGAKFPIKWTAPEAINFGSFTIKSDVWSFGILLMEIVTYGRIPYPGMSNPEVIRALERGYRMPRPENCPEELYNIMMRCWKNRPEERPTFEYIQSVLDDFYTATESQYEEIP", "assay": "In vitro kinase assay of Hck alone (Z'-LYTE, peptide substrate)", "type": "biochemical", "conditions": "Z'-Lyte dose-response, FIG. 7"}, "Nef:Hck-YEEI complex": {"target": "Nef:Hck-YEEI complex (Homo sapiens, UniProt P08631)", "sequence (P08631 with tags, fused parts or gaps isoform P08631-3, other chains not shown)": "as the sequence (P08631 with tags, fused parts or gaps isoform P08631-3) above", "conditions": "Z'-Lyte dose-response, FIG. 7"}},
  "data": [
    {"smiles": "Nc1ncnc2oc(-c3ccccc3)c(-c3ccccc3)c12", "note": "[IIIi]", "values": [
      {"measurement": "activity at 5 µM", "setting": "HIV-1 strain NL4-3; Human immunodeficiency virus 1, NL43, U-87 MG, 96 h, read-out: HIV p24% Control @ day 4", "value": 72, "unit": "%"},
      {"measurement": "Anti-retroviral activity", "setting": "HIV-1 strain NL4-3; data not shown", "value": "very weak anti-retroviral activity"},
      {"measurement": "Cytotoxicity, Viable cell % control", "setting": "U87MG cells", "value": 94, "unit": "% control"},
      {"measurement": "Inhibition of Hck alone", "setting": "Hck alone", "value": "virtually inactive"},
      {"measurement": "Inhibition of Nef:Hck complex", "setting": "Nef:Hck-YEEI complex", "value": "virtually inactive"}
    ]}
  ]
}
